Measured values reported in PMC3913255, “Ligand determinants of fatty acid activation of the pronociceptive ion channel TRPA1” (PeerJ, 2014).
Read-outs that look alike come from different tables or passages of the source.

What was measured:
Format in all cases: cell-based
[1] = molecular target: T1, CaV3.1 (Homo sapiens, UniProt O43497); experiment: patch clamp recording of CaV3.[…] channels, […]
T1 construct: gene CACNA1G

[2] = molecular target: T2, hTRPA1 (Homo sapiens, UniProt O75762); experiment: calcium fluorescence assay and whole-cell patch clamp in HEK […] cells expressing hTRPA1
T2 construct: gene TRPA1
T2 sequence (O75762 whole entry): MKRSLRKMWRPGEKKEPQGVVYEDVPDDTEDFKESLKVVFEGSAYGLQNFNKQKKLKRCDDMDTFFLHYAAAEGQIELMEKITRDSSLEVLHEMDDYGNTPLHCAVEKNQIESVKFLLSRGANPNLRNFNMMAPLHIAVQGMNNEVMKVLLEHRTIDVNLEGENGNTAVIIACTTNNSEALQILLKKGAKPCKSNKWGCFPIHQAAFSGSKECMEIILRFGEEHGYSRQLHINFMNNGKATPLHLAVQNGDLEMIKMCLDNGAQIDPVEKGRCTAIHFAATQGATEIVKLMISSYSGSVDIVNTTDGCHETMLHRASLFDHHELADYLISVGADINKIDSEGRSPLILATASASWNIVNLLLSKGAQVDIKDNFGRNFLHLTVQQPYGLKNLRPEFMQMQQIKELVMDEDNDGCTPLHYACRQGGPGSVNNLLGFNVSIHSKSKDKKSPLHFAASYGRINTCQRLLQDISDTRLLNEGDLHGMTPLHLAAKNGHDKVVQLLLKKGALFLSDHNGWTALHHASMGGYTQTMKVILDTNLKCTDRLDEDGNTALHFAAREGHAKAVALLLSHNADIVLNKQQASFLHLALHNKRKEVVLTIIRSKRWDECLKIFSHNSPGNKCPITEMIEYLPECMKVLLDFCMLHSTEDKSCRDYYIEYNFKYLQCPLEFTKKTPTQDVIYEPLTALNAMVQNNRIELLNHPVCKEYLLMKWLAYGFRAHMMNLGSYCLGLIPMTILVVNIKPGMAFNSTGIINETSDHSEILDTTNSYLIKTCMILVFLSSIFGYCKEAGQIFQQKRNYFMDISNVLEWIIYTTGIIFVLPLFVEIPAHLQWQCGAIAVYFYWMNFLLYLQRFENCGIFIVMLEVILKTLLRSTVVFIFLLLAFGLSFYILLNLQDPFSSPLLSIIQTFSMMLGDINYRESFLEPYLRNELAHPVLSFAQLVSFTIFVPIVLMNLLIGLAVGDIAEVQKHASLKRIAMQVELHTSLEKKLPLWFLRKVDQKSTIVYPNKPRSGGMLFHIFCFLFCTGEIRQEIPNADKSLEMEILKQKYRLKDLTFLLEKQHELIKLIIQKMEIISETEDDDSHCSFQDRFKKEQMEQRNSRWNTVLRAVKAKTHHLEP

[3] = molecular target: T2, hTRPA1; experiment: calcium fluorescence assay in HEK […] cells expressing hTRPA1 ([…]); conditions: HEK293, read-out: % increase in [Ca]i at 30 μM
[4] = molecular target: T2, hTRPA1; experiment: as above; conditions: HEK293; read-out: % increase in [Ca]i at 30 μM
[5] = molecular target: T2, hTRPA1; experiment: as above; conditions: HEK293; read-out: Change in RFU (% Predrug)
[6] = molecular target: T3, mTRPA1 (Mus musculus, UniProt Q8BLA8); experiment: calcium fluorescence assay in HEK […] cells expressing mouse TRPA1 ([…]); conditions: HEK293; read-out: % of CA (300 μM) response at 100 μM
T3 construct: gene Trpa1
T3 sequence (Q8BLA8 whole entry): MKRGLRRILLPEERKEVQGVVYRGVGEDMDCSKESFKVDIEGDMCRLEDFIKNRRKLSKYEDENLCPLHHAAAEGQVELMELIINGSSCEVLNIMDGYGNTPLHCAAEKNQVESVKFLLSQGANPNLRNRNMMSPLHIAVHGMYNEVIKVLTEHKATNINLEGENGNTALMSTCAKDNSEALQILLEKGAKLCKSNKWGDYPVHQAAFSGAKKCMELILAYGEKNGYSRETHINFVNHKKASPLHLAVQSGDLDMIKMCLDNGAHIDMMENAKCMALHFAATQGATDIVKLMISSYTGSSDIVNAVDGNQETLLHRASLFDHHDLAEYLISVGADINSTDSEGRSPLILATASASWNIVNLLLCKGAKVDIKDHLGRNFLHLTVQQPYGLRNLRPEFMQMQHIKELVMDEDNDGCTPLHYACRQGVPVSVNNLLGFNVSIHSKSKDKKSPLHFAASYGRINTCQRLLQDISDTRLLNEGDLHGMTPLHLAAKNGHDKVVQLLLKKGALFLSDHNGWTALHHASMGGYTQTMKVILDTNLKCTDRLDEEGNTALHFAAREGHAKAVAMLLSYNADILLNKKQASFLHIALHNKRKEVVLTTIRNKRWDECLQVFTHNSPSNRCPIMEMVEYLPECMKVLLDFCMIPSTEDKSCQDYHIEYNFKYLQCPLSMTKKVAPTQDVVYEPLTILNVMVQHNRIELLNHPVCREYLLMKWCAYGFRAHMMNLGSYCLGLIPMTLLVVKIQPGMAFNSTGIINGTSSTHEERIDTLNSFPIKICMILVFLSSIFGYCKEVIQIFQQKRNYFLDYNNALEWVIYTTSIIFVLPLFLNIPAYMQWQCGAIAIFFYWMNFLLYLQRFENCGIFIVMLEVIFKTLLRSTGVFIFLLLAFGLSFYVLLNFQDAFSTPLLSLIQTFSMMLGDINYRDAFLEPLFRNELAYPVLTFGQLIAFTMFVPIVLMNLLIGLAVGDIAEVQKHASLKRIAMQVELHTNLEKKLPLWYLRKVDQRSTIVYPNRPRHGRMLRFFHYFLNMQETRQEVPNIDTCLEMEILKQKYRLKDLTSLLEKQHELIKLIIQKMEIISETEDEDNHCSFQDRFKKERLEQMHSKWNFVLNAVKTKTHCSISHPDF

[7] = molecular target: T2, hTRPA1; experiment: calcium fluorescence assay and whole-cell patch clamp in HEK […] cells expressing hTRPA1; remark: listed apart in the source

T1 sequence (O43497 whole entry): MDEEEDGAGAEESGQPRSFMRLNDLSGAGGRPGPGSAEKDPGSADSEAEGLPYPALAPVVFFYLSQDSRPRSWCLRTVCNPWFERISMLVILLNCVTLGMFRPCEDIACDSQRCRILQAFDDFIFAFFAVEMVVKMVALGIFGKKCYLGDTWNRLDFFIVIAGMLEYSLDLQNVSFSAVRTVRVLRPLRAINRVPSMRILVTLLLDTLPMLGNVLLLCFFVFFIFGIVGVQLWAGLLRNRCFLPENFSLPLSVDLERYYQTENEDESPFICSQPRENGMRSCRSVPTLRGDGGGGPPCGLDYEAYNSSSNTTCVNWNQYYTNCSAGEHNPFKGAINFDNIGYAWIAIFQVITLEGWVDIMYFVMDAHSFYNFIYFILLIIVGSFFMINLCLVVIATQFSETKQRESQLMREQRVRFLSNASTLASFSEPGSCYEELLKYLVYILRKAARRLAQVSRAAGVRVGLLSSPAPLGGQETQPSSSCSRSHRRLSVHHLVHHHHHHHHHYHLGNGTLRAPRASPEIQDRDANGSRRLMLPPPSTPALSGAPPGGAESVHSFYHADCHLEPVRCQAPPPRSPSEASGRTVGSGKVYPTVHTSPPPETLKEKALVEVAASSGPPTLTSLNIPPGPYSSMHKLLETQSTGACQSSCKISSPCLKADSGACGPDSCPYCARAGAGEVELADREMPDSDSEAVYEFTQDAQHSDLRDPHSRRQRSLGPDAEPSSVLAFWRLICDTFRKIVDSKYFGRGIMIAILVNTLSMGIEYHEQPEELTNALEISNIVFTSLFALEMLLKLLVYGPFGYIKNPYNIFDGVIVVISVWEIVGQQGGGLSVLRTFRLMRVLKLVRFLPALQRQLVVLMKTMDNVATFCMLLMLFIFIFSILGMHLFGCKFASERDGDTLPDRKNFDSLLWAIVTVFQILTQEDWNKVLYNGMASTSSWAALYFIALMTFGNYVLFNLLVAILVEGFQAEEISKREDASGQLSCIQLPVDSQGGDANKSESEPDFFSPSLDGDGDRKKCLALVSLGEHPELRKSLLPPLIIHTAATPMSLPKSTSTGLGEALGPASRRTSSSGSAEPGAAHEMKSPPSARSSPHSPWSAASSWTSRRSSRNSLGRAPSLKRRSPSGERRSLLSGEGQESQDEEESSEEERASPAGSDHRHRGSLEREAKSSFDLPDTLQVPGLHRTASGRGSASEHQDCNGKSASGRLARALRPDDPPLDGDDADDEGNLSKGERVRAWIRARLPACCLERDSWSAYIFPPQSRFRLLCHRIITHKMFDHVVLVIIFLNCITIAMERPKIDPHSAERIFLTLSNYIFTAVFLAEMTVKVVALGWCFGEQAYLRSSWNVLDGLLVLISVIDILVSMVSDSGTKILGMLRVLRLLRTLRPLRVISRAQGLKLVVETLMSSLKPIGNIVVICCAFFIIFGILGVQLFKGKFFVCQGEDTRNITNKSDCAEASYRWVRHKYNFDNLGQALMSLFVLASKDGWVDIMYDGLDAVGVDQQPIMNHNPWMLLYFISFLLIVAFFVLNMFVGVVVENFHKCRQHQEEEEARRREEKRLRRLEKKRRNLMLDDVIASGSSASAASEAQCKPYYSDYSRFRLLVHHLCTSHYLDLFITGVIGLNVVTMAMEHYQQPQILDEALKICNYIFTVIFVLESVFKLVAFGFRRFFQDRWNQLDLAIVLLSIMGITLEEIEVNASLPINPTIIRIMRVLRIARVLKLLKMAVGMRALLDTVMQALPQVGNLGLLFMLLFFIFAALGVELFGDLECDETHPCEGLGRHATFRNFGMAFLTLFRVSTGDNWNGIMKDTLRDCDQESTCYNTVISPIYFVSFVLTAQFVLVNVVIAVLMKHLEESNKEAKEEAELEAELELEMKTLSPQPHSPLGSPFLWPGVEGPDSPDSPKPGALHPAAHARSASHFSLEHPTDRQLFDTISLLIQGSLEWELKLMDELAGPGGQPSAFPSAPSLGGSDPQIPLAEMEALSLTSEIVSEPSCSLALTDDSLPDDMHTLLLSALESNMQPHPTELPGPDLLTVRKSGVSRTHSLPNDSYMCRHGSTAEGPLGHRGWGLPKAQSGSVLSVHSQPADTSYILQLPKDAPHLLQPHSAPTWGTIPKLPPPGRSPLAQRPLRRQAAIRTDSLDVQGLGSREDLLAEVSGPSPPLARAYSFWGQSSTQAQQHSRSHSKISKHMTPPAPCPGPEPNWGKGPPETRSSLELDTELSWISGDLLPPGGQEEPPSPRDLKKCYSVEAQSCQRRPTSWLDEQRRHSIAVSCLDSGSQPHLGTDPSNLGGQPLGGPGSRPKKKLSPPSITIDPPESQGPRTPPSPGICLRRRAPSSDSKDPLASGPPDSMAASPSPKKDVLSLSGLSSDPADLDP

Structure (SMILES): CCCCC/C=C\C/C=C\C/C=C\C/C=C\CCCC(=O)O [AA, ω6-arachidonic acid]
- inhibition at 10 µM [1]: 81 ± 4%

Structure (SMILES): O=C/C=C/c1ccccc1 [CA, Cinnamaldehyde]
- EC50 [2]: 11 ± 2 µM

Structure (SMILES): CCCCC/C=C\C/C=C\C/C=C\C/C=C\CCCC(=O)N[C@@H](Cc1ccc(O)cc1)C(=O)O [NA-Tyr, N-arachidonoyl tyrosine]
- activation at 30 µM [3]: 172 ± 20%

Structure (SMILES): CCCCC/C=C\C/C=C\C/C=C\C/C=C\CCCC(=O)NCCO [AEA, anandamide]
- activation at 30 µM [4]: 227 ± 42%

Structure (SMILES): CCCCC/C=C\C/C=C\C/C=C\C/C=C\CCCC(=O)OC [AA-ME, Arachidonic acid methyl ester]
- activation at 30 µM [5]: 302 ± 53%

Structure (SMILES): CCCCC/C=C\C/C=C\C/C=C\C/C=C\CCCCCC(=O)O [adrenic acid]
- inhibition at 10 µM [1]: 64 ± 8%

Structure (SMILES): CCCCC/C=C\C/C=C\C/C=C\C/C=C\CCCC(=O)O [AA, arachidonic acid]
- Emax at 100 µM [6]: 81 ± 4%
- EC50 [7]: 13 ± 4 µM
